Publication PMC8906008 (Antiviral Research, 2022)
Like-named read-outs stand apart in the source and are kept apart here.

Tests used:
[1] = target: SARS-CoV-2 nsp5 (nsp4-5-6 WT) (Severe acute respiratory syndrome coronavirus 2, UniProt P0DTD1); assay: cell-based; settings: for inhibition at 10 µM: HEK-293T
SARS-CoV-2 nsp5 = settings: read-out: reported in vitro IC50; ref Ma et al., 2021; cited from earlier work
SARS-CoV-2 = assay: microbe, parasite or virus in culture; format: cell-based
[2] = target: purified SARS-CoV-2 nsp5 protein (Severe acute respiratory syndrome coronavirus 2, UniProt P0DTD1); assay: biochemical
[3] = read-out: Primary screen nsp5-WT RLU (%)
[4] = read-out: Secondary screen nsp5-WT RLU (%)

Compound | inhibition at 10 µM [1, 3] [%] | inhibition at 10 µM [1, 4] [%] | also measured
Cc1cnc(Nc2ccc(OCCN3CCCC3)cc2)nc1Nc1cccc(S(=O)(=O)NC(C)(C)C)c1 [compound 6, Fedratinib (SAR302503)] | 32.7 | 57.6 ± 8.6 | 
CC(C)(C(=O)c1cccnc1)c1cccnc1 [compound 44, Metyrapone] |  | -1.4 ± 0.2 | 
Cc1nc(Nc2ncc(C(=O)Nc3c(C)cccc3Cl)s2)cc(N2CCN(CCO)CC2)n1 [compound 21, Dasatinib (BMS-354825)] | 11.6 | 10.7 ± 1.7 | 
Cc1sc2c(c1C)C(c1ccc(Cl)cc1)=N[C@@H](CC(=O)Nc1ccc(O)cc1)c1nnc(C)n1-2 [compound 7, OTX015] | 31.8 | 31.5 ± 11 | 
O=C(NC(Cc1cc(=O)[nH]c2ccccc12)C(=O)O)c1ccc(Cl)cc1 (stereo not drawn) [compound 43, Rebamipide] |  | -1.5 ± 0.5 | 
C1=C/COCc2cc(ccc2OCCN2CCCC2)Nc2nccc(n2)-c2cccc(c2)COC/1 [Compound #9, Pacritinib (SB1518)] | 28.2 | 15.3 ± 1.3 | 
CC(C)(C)c1cnc(CSc2cnc(NC(=O)C3CCNCC3)s2)o1 [compound 17, SNS-032 (BMS-387032)] | 15.7 | 10.7 ± 1.1 | 
CCOC(=O)C1=C(C)NC(C)=C(C(=O)OCC)C1c1ccccc1/C=C/C(=O)OC(C)(C)C [compound 3, Lacidipine] | 10.2 | 8.9 ± 0.7 | 
COc1cc(NC(=O)Nc2cccc(CNC(=O)O[C@H]3CCOC3)c2)ccc1-c1cnco1 [compound 5, Merimepodib] | 46.1 | 39 | IC50 [1]: < 50 µM; SI (selectivity index) (SARS-CoV-2; EC50 to CC50 ratio, A549-ACE2 cells): 1.5; EC50 (SARS-CoV-2; Severe acute respiratory syndrome coronavirus 2, A549-ACE2, read-out: EC50 inhibition of SARS-CoV-2 replication): 21 µM; IC50 [2]: > 600 µM; inhibition of nsp5 protease activity in vitro [2]: does not efficiently inhibit
C=CC(=O)Nc1cccc(Nc2nc(Nc3ccc(N4CCN(C(C)=O)CC4)cc3OC)ncc2C(F)(F)F)c1 [compound 20, Rociletinib (CO-1686. AVL-301)] | 13.3 | 9.7 ± 1.9 | 
CNCc1ccc(C)c(NC(=O)c2ccc(Nc3nc(-c4ccccc4)c4ccccc4n3)cc2)c1 [compound 16, BMS-833923 (XL139)] | 16.4 | 16.2 ± 2.1 | 
C=CC(=O)Nc1cc(Nc2nccc(-c3cn(C)c4ccccc34)n2)c(OC)cc1N(C)CCN(C)C [compound 23, Osimertinib (AZD9291)] |  |  | Primary screen nsp5-WT RLU (%) [1]: 10.1%; Secondary screen nsp5-WT RLU (%) [1]: 8.3 ± 2.3%
UNC2881 [compound 1] |  |  | Primary screen nsp5-WT RLU (%) [1]: 29.5%; Secondary screen nsp5-WT RLU (%) [1]: 18.2 ± 0.5%
O=C(Nc1c[nH]nc1-c1nc2ccc(CN3CCOCC3)cc2[nH]1)NC1CC1 [compound 10, AT9283] | 24 | 14.7 ± 0.8 | 
Cc1cnc(Nc2ccc(N3CCN(C)CC3)cc2)nc1Nc1cccc(S(=O)(=O)NC(C)(C)C)c1 [compound 8, TG101209] |  |  | Primary screen nsp5-WT RLU (%) [1]: 30.0%; Secondary screen nsp5-WT RLU (%) [1]: 34.9 ± 4.0%
CC[C@@H]1C(=O)N(C)c2cnc(Nc3ccc(C(=O)N[C@H]4CC[C@H](N5CCN(CC6CC6)CC5)CC4)cc3OC)nc2N1C(C)C [compound 4, Volasertib (BI6727)] | 83.9 | 114 ± 8.9 | 
COCCOc1ccc2c(c1)ncn2-c1ccc2cccc(N3CCC(N)CC3)c2n1 [compound 12, CP 673451] | 19.4 | 13.9 ± 0.9 | 
